In assay [1] the target is T1, human vitronectin receptor αvβ3 (Homo sapiens, UniProt P05106+P06756).
T1 construct: Human vitronectin receptor was obtained from the human placenta; from tissue; host or cells: human placenta
Put plainly: Inhibition of the binding of kistrin to human vitronectin receptor (αvβ3 ELISA Test, K/VnR). From the text:
The inhibition of the binding of kistrin to human vitronectin receptor (VnR) described below is a test method by which, for example, the antagonistic action of the compounds according to the invention on the vitronectin receptor αvβ3 can be determined (αvβ3 ELISA Test; the test method is abbreviated as “K/VnR” in the listing of the test results).
Kistrin was purified according to the methods of Dennis et al., as described in Proc. Natl. Acad. Sci. USA 87 (1989) 2471-2475 and PROTEINS: Structure, Function and Genetics 15 (1993) 312-321.
Human vitronectin receptor was obtained from the human placenta according to the method of Pytela et al., Methods Enzymol. 144 (1987) 475. Human vitronectin receptor αvβ3 can also be obtained from some cell lines (for example from 293 cells, a human embryonic kidney cell line) which are co-transfected with DNA sequences for both subunits αv and β3 of the vitronectin receptor. The subunits are extracted with octyl glycoside and then chromatographed through concanavalin A, heparin-Sepharose and S-300.
Murine monoclonal antibodies which are specific for the β3 subunits of the vitronectin receptor were prepared according to the method of Newman et al., Blood (1985) 227-232, or by a similar process. The rabbit Fab 2 anti-mouse Fc conjugate to horseradish peroxidase (anti-mouse Fc HRP) was obtained from Pel Freeze (Catalog No. 715 305-1).
The ability of substances to inhibit the binding of kistrin to the vitronectin receptor can be determined using an ELISA test. For this purpose, Nunc 96-well microtiter plates were coated with a solution of kistrin (0.002 mg/ml) according to the method of Dennis et al., as described in PROTEINS: Structure, Function and Genetics 15 (1993) 312-321. The plates were then washed twice with PBS/0.05% Tween-20 and blocked by incubating (60 min) with bovine serum albumin (BSA, 0.5%, RIA grade or better) in buffer solution (Tris-HCl (50 mM), NaCl (100 mM), MgCl2 (1 mM), CaCl2 (1 mM), MnCl2 (1 mM), pH 7). Solutions of known inhibitors and of the test substances were prepared in concentrations from 2×10^−12 to 2×10^−6 mol/l in assay buffer (BSA (0.5%, RIA grade or better); Tris-HCl (50 mM), NaCl (100 mM), MgCl2 (1 mM), CaCl2 (1 mM), MnCl2 (1 mM), pH 7). The blocked plates were emptied, and in each case 0.025 ml of this solution which contained a defined concentration (2×10^−12 to 2×10^−6 mol/l ) either of a known inhibitor or of a test substance, were added to each well. 0.025 ml of a solution of the vitronectin receptor in assay buffer (0.03 mg/ml) was pipetted into each well of the plate and the plate was incubated at room temperature for 60-180 min on a shaker. In the meantime, a solution (6 ml/plate) of a murine monoclonal antibody specific for the β3 subunit of the vitronectin receptor was prepared in assay buffer (0.0015 mg/ml). A second rabbit antibody (0.001 ml of stock solution/6 ml of the murine monoclonal anti-β3 antibody solution) which was an anti-mouse Fc HRP antibody conjugate was added to this solution, and this mixture of murine anti-β3 antibody and rabbit anti-mouse Fc HRP antibody conjugate was incubated during the time of the receptor-inhibitor incubation. The test plates were washed four times with PBS solution which contained 0.05% Tween-20, and in each case 0.05 ml/well of the antibody mixture was pipetted into each well of the plate and incubated for 60-180 min. The plate was washed four times with PBS/0.05% Tween-20 and then developed with 0.05 ml/well of a PBS solution which contained 0.67 mg/ml of o-phenylenediamine and 0.012% of H2O2. Alternatively to this, o-phenylenediamine can be employed in a buffer (pH 5) which contains Na3PO4 and citric acid. The color development was stopped using 1 N H2SO4 (0.05 ml/well). The absorption for each well was measured at 492-405 nm and the data were evaluated by standard methods.
On the technique in general: In an ELISA, binding on a coated surface is turned into a signal by an enzyme label.

The target of another assay is GP IIb/IIIa (Homo sapiens, UniProt P05106+P08514). Put plainly: Fibrinogen-GP IIbIIIa Receptor ELISA Binding Assay (GP IIb/IIIa). Particulars: read-out: GP IIb/IIla IC50. As to the method: The test for inhibition of GP IIb/IIIa (“Fibrinogen-GP IIbIIIa Receptor ELISA Binding Assay”) was carried out as described in U.S. Pat. No. 5,403,836 which is incorporated herein by reference (the test method is abbreviated as “GP IIb/IIa” in the listing of the test results).

Each structure is given as a SMILES string.

T1 sequence (P06756 31-889 limits assumed): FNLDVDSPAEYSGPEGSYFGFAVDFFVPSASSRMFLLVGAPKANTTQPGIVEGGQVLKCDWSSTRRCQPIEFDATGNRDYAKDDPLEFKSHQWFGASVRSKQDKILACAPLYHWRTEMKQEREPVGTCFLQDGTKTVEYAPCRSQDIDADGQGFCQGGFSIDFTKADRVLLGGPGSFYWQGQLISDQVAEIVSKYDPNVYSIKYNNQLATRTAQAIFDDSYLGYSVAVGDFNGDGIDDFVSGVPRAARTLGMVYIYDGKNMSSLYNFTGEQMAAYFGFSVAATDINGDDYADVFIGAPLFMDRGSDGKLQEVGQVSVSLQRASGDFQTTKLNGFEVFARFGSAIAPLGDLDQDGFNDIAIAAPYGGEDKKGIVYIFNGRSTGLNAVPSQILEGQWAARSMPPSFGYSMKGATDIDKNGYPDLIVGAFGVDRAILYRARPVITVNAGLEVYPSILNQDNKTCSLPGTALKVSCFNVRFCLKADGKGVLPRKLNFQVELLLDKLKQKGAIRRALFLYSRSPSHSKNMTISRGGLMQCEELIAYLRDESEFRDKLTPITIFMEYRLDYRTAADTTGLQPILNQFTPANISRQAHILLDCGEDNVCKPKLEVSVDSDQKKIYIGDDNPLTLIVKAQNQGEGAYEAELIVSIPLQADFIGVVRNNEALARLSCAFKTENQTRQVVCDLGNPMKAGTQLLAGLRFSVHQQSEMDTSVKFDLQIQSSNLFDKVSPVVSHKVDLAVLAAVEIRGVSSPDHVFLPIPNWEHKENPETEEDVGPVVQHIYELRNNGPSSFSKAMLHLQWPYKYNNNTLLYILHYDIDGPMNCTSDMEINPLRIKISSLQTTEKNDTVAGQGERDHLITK
T1 sequence (P06756 891-1048 partner limits assumed): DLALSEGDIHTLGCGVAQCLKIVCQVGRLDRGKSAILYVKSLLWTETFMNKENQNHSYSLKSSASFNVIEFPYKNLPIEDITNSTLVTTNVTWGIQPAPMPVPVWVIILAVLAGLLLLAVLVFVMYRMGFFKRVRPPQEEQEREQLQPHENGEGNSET
T1 sequence (P05106 27-788): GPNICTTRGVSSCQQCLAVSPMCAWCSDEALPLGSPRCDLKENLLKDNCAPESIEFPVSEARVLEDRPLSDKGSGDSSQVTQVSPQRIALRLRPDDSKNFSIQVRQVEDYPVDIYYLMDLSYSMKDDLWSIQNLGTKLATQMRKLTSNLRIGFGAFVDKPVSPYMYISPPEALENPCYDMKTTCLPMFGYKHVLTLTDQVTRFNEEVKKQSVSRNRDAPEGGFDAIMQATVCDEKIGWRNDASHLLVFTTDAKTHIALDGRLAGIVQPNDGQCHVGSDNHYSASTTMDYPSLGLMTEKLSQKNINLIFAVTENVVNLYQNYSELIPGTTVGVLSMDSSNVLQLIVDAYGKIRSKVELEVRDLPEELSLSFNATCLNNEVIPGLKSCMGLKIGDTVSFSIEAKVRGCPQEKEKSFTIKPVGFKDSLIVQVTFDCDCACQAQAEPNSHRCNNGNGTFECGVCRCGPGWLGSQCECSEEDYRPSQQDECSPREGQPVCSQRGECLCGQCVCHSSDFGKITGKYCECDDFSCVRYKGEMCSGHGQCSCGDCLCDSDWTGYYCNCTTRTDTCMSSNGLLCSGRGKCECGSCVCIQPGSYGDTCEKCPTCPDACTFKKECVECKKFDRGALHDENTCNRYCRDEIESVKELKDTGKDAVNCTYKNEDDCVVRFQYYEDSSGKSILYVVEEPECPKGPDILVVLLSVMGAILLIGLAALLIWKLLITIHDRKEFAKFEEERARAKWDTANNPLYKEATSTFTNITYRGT
GP IIb/IIIa, sequence (P08514 32-887 limits assumed): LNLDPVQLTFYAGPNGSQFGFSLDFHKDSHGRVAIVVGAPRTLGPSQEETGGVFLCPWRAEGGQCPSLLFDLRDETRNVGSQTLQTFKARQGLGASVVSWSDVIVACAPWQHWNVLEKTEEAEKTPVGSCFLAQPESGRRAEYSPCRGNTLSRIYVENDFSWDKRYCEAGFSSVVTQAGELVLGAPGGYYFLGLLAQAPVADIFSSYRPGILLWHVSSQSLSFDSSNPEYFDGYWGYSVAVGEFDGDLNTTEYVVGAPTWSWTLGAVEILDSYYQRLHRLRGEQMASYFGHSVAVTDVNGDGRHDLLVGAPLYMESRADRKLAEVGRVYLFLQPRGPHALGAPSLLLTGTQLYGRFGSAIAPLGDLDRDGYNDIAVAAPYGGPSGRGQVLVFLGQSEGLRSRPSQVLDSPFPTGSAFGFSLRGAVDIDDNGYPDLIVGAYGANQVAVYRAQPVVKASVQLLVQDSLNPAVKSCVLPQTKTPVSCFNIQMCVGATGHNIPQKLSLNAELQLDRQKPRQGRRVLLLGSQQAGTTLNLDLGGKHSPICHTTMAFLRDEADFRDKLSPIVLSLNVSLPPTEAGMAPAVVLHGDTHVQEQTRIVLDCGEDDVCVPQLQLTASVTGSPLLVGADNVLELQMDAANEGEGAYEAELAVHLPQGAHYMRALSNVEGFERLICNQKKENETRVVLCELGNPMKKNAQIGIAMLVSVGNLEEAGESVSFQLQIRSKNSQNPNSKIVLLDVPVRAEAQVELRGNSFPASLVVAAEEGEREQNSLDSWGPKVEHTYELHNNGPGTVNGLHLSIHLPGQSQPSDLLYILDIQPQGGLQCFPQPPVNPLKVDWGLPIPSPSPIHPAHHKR
GP IIb/IIIa, sequence (P08514 891-1039 partner limits assumed): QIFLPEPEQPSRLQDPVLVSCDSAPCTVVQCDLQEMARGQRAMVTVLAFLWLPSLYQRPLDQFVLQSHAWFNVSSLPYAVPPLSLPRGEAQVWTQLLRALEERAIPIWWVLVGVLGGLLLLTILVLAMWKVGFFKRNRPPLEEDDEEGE
GP IIb/IIIa, sequence (P05106 27-788): as the sequence (P05106 27-788) above

Turning to `O=C(CCCOc1ccc(C[C@H](NS(=O)(=O)c2ccc3ccccc3c2)C(=O)O)cc1)NC1=NCCCN1` [Example 1, (2S)-2-(Naphthalene-2-sulfonylamino)-3-{4-[3-(1,4,5,6-tetrahydropyrimidin-2-ylcarbamoyl)-propoxy]-phenyl}-propionic acid], the results for the IC50 (in assay [1]; on GP IIb/IIIa) were 0.0075 µM and 0.26 µM, respectively.
As to `O=C(CCCOc1ccc(C[C@H](NS(=O)(=O)c2cccc3ccccc23)C(=O)O)cc1)NC1=NCCCN1` [Example 2, (2S)-2-(Naphthalene-1-sulfonylamino)-3-{4-[3-(1,4,5,6-tetrahydropyrimidin-2-ylcarbamoyl)-propoxy]-phenyl}-propionic acid], the IC50 in assay [1] is 0.0027 µM; at GP IIb/IIIa, 0.525 µM.
For `O=C(CCCOc1ccc(C[C@H](NS(=O)(=O)c2ccc(Cl)cc2)C(=O)O)cc1)NC1=NCCCN1` [Example 3, (2S)-2-(4-Chlorobenzenesulfonylamino)-3-{4-[3-(1,4,5,6-tetrahydropyrimidin-2-ylcarbamoyl)-propoxy]-phenyl}-propionic acid], in that order: 0.003 µM and 0.765 µM.
For the compound `O=C(CCCOc1ccc(C[C@H](NS(=O)(=O)c2ccccc2)C(=O)O)cc1)NC1=NCCCN1` [Example 4, (2S)-2-Benzenesulfonylamino-3-{4-[3-(1,4,5,6-tetrahydropyrimidin-2-ylcarbamoyl)-propoxy]-phenyl}-propionic acid], the IC50 in assay [1] was determined as 0.0028 µM; on GP IIb/IIIa it was 0.41 µM.
For `O=C(CCCOc1ccc(C[C@H](NS(=O)(=O)c2ccc(C(F)(F)F)cc2)C(=O)O)cc1)NC1=NCCCN1` [Example 5, (2S)-3-{4-[3-(1,4,5,6-Tetrahydropyrimidin-2-ylcarbamoyl)-propoxy]-phenyl}-2-(4-trifluoromethylbenzenesulfonylamino)-propionic acid] the same measures were 0.0035 µM and 3.15 µM.
For `Cc1ccc(S(=O)(=O)N[C@@H](Cc2ccc(OCCCC(=O)NC3=NCCCN3)cc2)C(=O)O)cc1` [Example 6, (2S)-3-{4-[3-(1,4,5,6-Tetrahydropyrimidin-2-ylcarbamoyl)-propoxy]-phenyl}-2-(toluene4-sulfonylamino)-propionic acid] the same measures were 0.0028 µM and 0.72 µM.
As to `O=C(CCCOc1ccc(C[C@H](NS(=O)(=O)c2ccc(Br)cc2)C(=O)O)cc1)NC1=NCCCN1` [Example 7, (2S)-2-(4-Bromobenzenesulfonylamino)-3-{4-[3-(1,4,5,6-tetrahydropyrimidin-2-ylcarbamoyl)-propoxy]-phenyl}-propionic acid], the IC50 came to 0.0035 µM in assay [1] and 0.95 µM on GP IIb/IIIa.
For `O=C(CCCOc1ccc(C[C@H](NS(=O)(=O)c2cccs2)C(=O)O)cc1)NC1=NCCCN1` [Example 8, (2S)-3-{4-[3-(1,4,5,6-Tetrahydropyrimidin-2-ylcarbamoyl)-propoxy]-phenyl}-2-(thiophene-2-sulfonylamino)-propionic acid], in that order: 0.0025 µM and 0.33 µM.
In the case of `CCCCS(=O)(=O)N[C@@H](Cc1ccc(OCCCC(=O)NC2=NCCCN2)cc1)C(=O)O` [Example 9, (2S)-2-(Butane-1-sulfonylamino)-3-{4-[3-(1,4,5,6-tetrahydropyrimidin-2-ylcarbamoyl)-propoxy]-phenyl}-propionic acid], the IC50 in assay [1] worked out at 0.0053 µM; at GP IIb/IIIa, 2.1 µM.
For `CCCCCCCCS(=O)(=O)N[C@@H](Cc1ccc(OCCCC(=O)NC2=NCCCN2)cc1)C(=O)O` [Example 10, (2S)-2-(Octane-1-sulfonylamino)-3-{4-[3-(1,4,5,6-tetrahydropyrimidin-2-ylcarbamoyl)-propoxy]-phenyl}-propionic acid], in that order: 0.0076 µM and 2.4 µM.

The values above are taken from US6340679B1, “Guanidine derivatives as inhibitors of cell adhesion” (Aventis Pharma Deutschland GmbH, priority 1999, dated 2002).
